Where a name gives a salt, the structure may show the parent alone.
Each compound was assayed against T1, NK1 receptors of IM9 human lymphoblasts (Homo sapiens, UniProt P25103) (assay: Binding of [^125 I]BH-SP (substance P) to the NK1 receptors of human lymphoblasts). Details: read-out: inhibition constant Ki (binding of substance P to the human lymphoblast NK1 receptor).
T1 construct: NK1 receptors of IM9 human lymphoblasts; endogenous in cells; host or cells: IM9 human lymphoblasts
Procedure: In ligand binding studies, the inhibition constant Ki is defined by the Cheng-Prusoff relationship (in Receptor Binding in Drug Research, eds. R. A. O'Brien, Marcel Dekker, New York, 1986): [formula] [L]: concentration of the ligand, Kd: dissociation constant of the ligand,
IC50 : concentration which inhibits the ligand binding by 50%.
The affinity of the compounds of formula (I) for the tachykinin receptors was evaluated in vitro by several biochemical tests using radioligands:
1°) The binding of [^125 I]BH-SP (substance P labeled with iodine-125 using Bolton-Hunter's reagent) to the NK1 receptors of human lymphoblasts.
The tests were performed according to X. Emonds-Alt et al. (Eur. J. Pharmacol., 1993, 2, 403-413).

T1 sequence (P25103 whole entry): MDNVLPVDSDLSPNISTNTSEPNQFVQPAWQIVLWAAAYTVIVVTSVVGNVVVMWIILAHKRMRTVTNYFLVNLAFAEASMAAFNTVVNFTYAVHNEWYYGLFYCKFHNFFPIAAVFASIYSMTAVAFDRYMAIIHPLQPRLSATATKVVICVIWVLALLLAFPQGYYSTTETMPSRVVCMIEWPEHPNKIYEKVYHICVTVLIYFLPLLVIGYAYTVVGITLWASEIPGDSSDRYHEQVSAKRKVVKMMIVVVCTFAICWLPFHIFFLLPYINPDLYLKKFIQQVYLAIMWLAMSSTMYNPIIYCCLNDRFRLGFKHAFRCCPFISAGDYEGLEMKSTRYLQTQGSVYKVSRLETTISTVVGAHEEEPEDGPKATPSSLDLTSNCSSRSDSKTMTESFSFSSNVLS

Row | Structure (SMILES) | Ki
1 | O=C1CC(CCN2CCC(O)(c3ccccc3)CC2)(c2ccc(Cl)c(Cl)c2)CN1Cc1cc(C(F)(F)F)cc(C(F)(F)F)c1 (stereo not shown) [Example 10, 4-(3,4-Dichlorophenyl)-4-[2-(4-hydroxy-4-phenylpiperid-1-yl)ethyl]-1-[3,5-bis(trifluoromethyl)benzyl]pyrrolidin-2-one hydrochloride] | ~0.1 nM
2 | O=C1CC(CCN2CCC(O)(c3ccccc3)CC2)(c2ccc(Cl)c(Cl)c2)CCN1Cc1ccccc1 (stereo not shown) [1-benzyl-4-(3,4-dichlorophenyl)-4-[2-(4-hydroxy-4-phenylpiperid-1-yl)ethyl]piperid-2-one hydrochloride] | ~1000 nM
3 | O=C1CCC(CCN2CCC(Cc3ccccc3)CC2)(c2ccc(Cl)c(Cl)c2)CN1Cc1ccccc1 (stereo not shown) [5-[2-(4-benzyl-1-piperid-1-yl)ethyl]-5-(3,4-dichlorophenyl)-1-benzylpiperid-2-one hydrochloride] | ~1000 nM
4 | C[N+]1(CCC2(c3ccc(Cl)c(Cl)c3)CCC(=O)N(Cc3cc(C(F)(F)F)cc(C(F)(F)F)c3)C2)CCC(c2ccccc2)CC1 (stereo not shown) [Example 7, 1-Methyl-1-[2-[1-[3,5-bis(trifluoromethyl)benzyl]-5-(3,4-dichlorophenyl)-2-oxopiperid-5-yl]-ethyl]-4-phenylpiperidinium iodide] | ~0.1 nM
